Entries after “also recorded” stand apart in the source; their conditions may differ.
What was measured:
Rhodopsin = Rhodopsin protein expression (immunofluorescence assay) in dissociated retinal cell cultures; type: cell-based; settings: P5 mouse dissociated retinal cultures, 2 days treatment, vs DMSO and PR1
Excerpt: In order to identify compounds that may target Nr2e3 a cheminformatic strategy was used to screen hit compounds previously identified to interact with recombinant Nr2e3 in transfected CHO-S cells in a luciferase-based assay (PubChem Assay IDs: 602229, 624378, 624394, and 651849). As a secondary screen for initial hits, dissociated primary retinal cell cultures were used and assayed Rhodopsin, because it is a well-defined target of Nr2e3 signaling and is expressed at high levels exclusively in rod photoreceptors. Retina were dissociated from postnatal day 5 (P5) mice and cultured them in media containing the small molecules. After treatment for 2 days, the cells were collected for qPCR analysis and quantified Rhodopsin expression. […] This finding was confirmed with an immunofluorescence assay to examine Rhodopsin protein expression in dissociated retinal cultures from P5 mice.
Retinas were dissected from postnatal day 5 (P5) mice and dissociated by treatment with 0.5% Trypsin diluted in calcium- and magnesium-free HBSS from 10 minutes at 37° C. Trypsin was inactivated by adding an equal volume of FBS and cells were pelleted by centrifugation at 4° C. and resuspended in media (Neurobasal-A containing 1% FBS, 1% N2, 1% B27, 1% Pen/Strep, and 0.5% L-glutamine). For qPCR, cells were plated into 24-well tissue culture plates at a density of 1 retina/well (see qPCR section below). […]

Rho^P23H mice = assay: Photoreceptor degeneration in Rho^P23H mice: histology and qPCR at P21; type: in vivo, mouse; settings: 10 mg/kg i.p. from P12-P14 until P21, vs DMSO vehicle
Description: FIG. 3A illustrates the timeline of photoreceptor degeneration in the Rhodopsin^P23H mouse and experimental design.
To determine whether photoreceptor degeneration can be prevented, Rho^P23H mice were treated with PR3 or vehicle from P12-P14 until P21, during the period of rod photoreceptor death (FIG. 3A). At P21, visual function was assessed with ERGs and euthanized the mice for histological and qPCR analyses. At P21, control Rho^P23H mice had only 2-3 rows of photoreceptors remaining in their ONL (FIGS. 3B and 3C). Rods were sparse and there were few remaining cones (S Opsin+ and Cone Arrestin+ photoreceptors). Control Rho^P23H mice had minimal scotopic and photopic b-wave amplitudes by ERG analysis (FIGS. 4A, 4B, 4D, and 4E). […]
Photoregulin3 was identified by searching previous small molecule screens with SciFinder and PubChem for Nr2e3 interacting molecules. It was initially obtained from ChemDiv and then synthesized and purified in large quantities in the lab after initial screening. […]
RNA from retinas was isolated using TRIzol (Invitrogen) and cDNA was synthesized using the iScript cDNA synthesis kit (Bio-Rad). SSO Fast (Bio-Rad) was used for quantitative real-time PCR. For analysis, values were normalized to Gapdh (ΔCt) and ΔΔCt between DMSO and compound-treated samples was expressed as percent of DMSO treated controls (100*2^ΔΔCt). […]

COc1cc2nc(CN3CC=C(c4ccccc4)CC3)nc(O)c2cc1OC [PR3]
Rhodopsin protein expression (Rhodopsin): reduced expression of Rhodopsin compared to DMSO vehicle and PR1
expression of photoreceptor genes in whole retinas (qPCR) (Rho^P23H mice): greater expression of photoreceptor genes Recoverin, Rhodopsin, and S Opsin; also recorded: more expression of Recoverin and Rhodopsin
rows of photoreceptors (DAPI+ cells) in the ONL (Rho^P23H mice): greater survival of photoreceptors; also recorded: several rows of rod and cone photoreceptors in the ONL
